Assay results: ChEMBL document CHEMBL1146128, “Azolylchromans as a novel scaffold for anticonvulsant activity” (2006)

Experiments:
Conditions in all cases: route intraperitoneal
Mus musculus [1] = assay: Mortality in PTZ-induced lethal convulsions in mice at 5 mg/kg, ip; type: functional
Mus musculus [2] = assay: Hind limb tonic extension in PTZ-induced lethal convulsions in mice at 5 mg/kg, ip; type: functional, Hindlimb
Mus musculus [3] = assay: Seizure latency in PTZ-induced lethal convulsions in mice at 5 mg/kg, ip; type: functional
Mus musculus [4] = assay: Seizure latency in PTZ-induced lethal convulsions in mice at 150 mg/kg, ip; type: functional
Mus musculus [5] = assay: Mortality in PTZ-induced lethal convulsions in mice at 150 mg/kg, ip; type: functional
Mus musculus [6] = assay: Hind limb tonic extension in PTZ-induced lethal convulsions in mice at 150 mg/kg, ip; type: functional, Hindlimb

Structure (SMILES) | Activity (Mus musculus [1]) | Activity (Mus musculus [2]) | Activity (Mus musculus [3]) | Activity (Mus musculus [4]) | Activity (Mus musculus [5]) | Activity (Mus musculus [6])
O/N=C1\c2ccccc2OCC1[n+]1cnc[nH]1 (configuration not stated) | 100% | 100% | 7.17 min |  |  | 
O=C1c2ccc(Cl)cc2OCC1n1cnnc1 (configuration not stated) | 83% | 100% | 4.67 min |  |  | 
O=C1c2ccc(Cl)cc2OCC1n1ccnc1 (configuration not stated) | 0% | 0% | 23.5 min |  |  | 
O=C1c2ccccc2OCC1n1cnnc1 (configuration not stated) | 100% | 100% | 2.83 min |  |  | 
O=C1c2ccccc2OCC1n1cncn1 (configuration not stated) | 17% | 17% | 22 min |  |  | 
O=C1c2ccc(Cl)cc2OCC1n1cncn1 (configuration not stated) | 100% | 100% | 2.5 min |  |  | 
O/N=C1/c2ccccc2OCC1n1cncn1 (configuration not stated) | 100% | 100% | 4 min |  |  | 
O=c1c(-n2cnnc2)coc2ccccc12 | 100% | 100% | 10 min |  |  | 
O/N=C1\c2ccccc2OCC1n1ccnc1 (configuration not stated) | 100% | 100% | 5.5 min |  |  | 
O/N=C1/c2ccc(Cl)cc2OCC1n1cnnc1 (configuration not stated) | 100% | 100% | 2.5 min |  |  | 
Cc1oc2ccccc2c(=O)c1-n1cnnc1 | 100% | 100% | 5 min |  |  | 
O=C1c2ccccc2OCC1n1ccnc1 (configuration not stated) | 83% | 83% | 2 min |  |  | 
O/N=C1/c2ccccc2OCC1n1ccnc1 (configuration not stated) | 0% | 83% | 7.8 min |  |  | 
O/N=C1/c2ccc(Cl)cc2OCC1n1ccnc1 (configuration not stated) | 100% | 100% | 5.83 min |  |  | 
C[C@@H]1Oc2ccccc2C(=O)[C@H]1n1ccnc1 (relative stereo) | 67% | 100% | 17 min |  |  | 
C[C@@H]1Oc2cc(Cl)ccc2C(=O)[C@H]1n1ccnc1 (relative stereo) | 67% | 67% | 18.6 min |  |  | 
C[C@H]1Oc2cc(Cl)ccc2C(=O)[C@@H]1n1cnnc1 (relative stereo) | 83% | 83% | 10 min |  |  | 
C[C@H]1Oc2ccccc2C(=O)[C@@H]1n1cnnc1 (relative stereo) | 100% | 100% | 7.17 min |  |  | 
CCCC(CCC)C(=O)[O-].[Na+] [VALPROATE SODIUM] |  |  |  | 15.65 min | 0% | 0%
